Four compounds from ChEMBL document CHEMBL1157039, “Synthesis and characterization of novel fatty acid analogs of cholesterol: in vitro antimicrobial activity” (2010) can be followed below.

The subject of assay [1] is Streptococcus pyogenes. In words: Antibacterial activity against recultured Streptococcus pyogenes after 24 hrs by disk diffusion method. Type of assay: functional. Background: In agar diffusion tests the substance spreads into inoculated agar from a disc or well.
Assay [2] relates to Streptococcus mutans. In words: Antibacterial activity against Streptococcus mutans UA159 MTCC 497 after 24 hrs by microdilution method. As to conditions: UA159 MTCC 497, 24 h. It counts as functional. (In broth dilution the organism is exposed to a series of concentrations in liquid medium.)
For assay [3], the system named is Candida albicans. Kind of assay: Antifungal activity against Candida albicans ATCC 24433 after 48 to 72 hrs by disk diffusion method. Type of assay: functional.
The subject of assay [4] is Escherichia coli. Kind of assay: Antibacterial activity against Escherichia coli ATCC 25922 after 24 hrs by disk diffusion method. Type of assay: functional.
The subject of assay [5] is Candida parapsilosis. In words: Antifungal activity against Candida parapsilosis ATCC 22019 after 48 to 72 hrs by disk diffusion method. It counts as functional.
For assay [6], the system named is Streptococcus mutans. In words: Antibacterial activity against Streptococcus mutans UA159 MTCC 497 after 24 hrs by disk diffusion method. Type of assay: functional.
Assay [7] concerns Streptococcus pyogenes. Kind of assay: Antibacterial activity against recultured Streptococcus pyogenes after 24 hrs by microdilution method. It counts as functional.
Assay [8] concerns Candida parapsilosis. In words: Antifungal activity against Candida parapsilosis ATCC 22019 after 48 to 72 hrs by microdilution method. It counts as functional. The following applies: Lodderomyces parapsilosis.
Assay [9] deals with Staphylococcus aureus. In words: Antibacterial activity against Staphylococcus aureus ATCC 25923 after 24 hrs by microdilution method. Type of assay: functional. As to conditions: ATCC 25923, 24 h.
Assay [10] deals with Candida albicans. In words: Antifungal activity against Candida albicans ATCC 24433 after 48 to 72 hrs by microdilution method. It counts as functional.
Assay [11] has as its system Pseudomonas aeruginosa. Kind of assay: Antibacterial activity against Pseudomonas aeruginosa ATCC 27853 after 24 hrs by microdilution method. Type of assay: functional. The following applies: ATCC 27853, 24 h.
In assay [12] the test system is Salmonella enterica. Kind of assay: Antibacterial activity against recultured Salmonella Typhimurium after 24 hrs by microdilution method. It counts as functional, Salmonella enterica subsp. enterica serovar Typhimurium.
Assay [13] concerns Cryptococcus neoformans. In words: Antifungal activity Cryptococcus neoformans after 48 to 72 hrs by disk diffusion method. Type of assay: functional.
Assay [14] has as its system Cryptococcus neoformans. Kind of assay: Antifungal activity Cryptococcus neoformans after 48 to 72 hrs by microdilution method. It counts as functional.
Assay [15] has as its system Pichia kudriavzevii. Kind of assay: Antifungal activity against Candida krusei ATCC 6528 after 48 to 72 hrs by microdilution method. Type of assay: functional.
For assay [16], the system named is Salmonella enterica. In words: Antibacterial activity against recultured Salmonella Typhimurium after 24 hrs by disk diffusion method. It counts as functional, Salmonella enterica subsp. enterica serovar Typhimurium.
Assay [17] concerns Escherichia coli. Kind of assay: Antibacterial activity against Escherichia coli ATCC 25922 after 24 hrs by microdilution method. Type of assay: functional. As to conditions: ATCC 25922, 24 h.
The subject of assay [18] is Pichia kudriavzevii. In words: Antifungal activity against Candida krusei ATCC 6528 after 48 to 72 hrs by disk diffusion method. Type of assay: functional.
The test system of assay [19] is Staphylococcus aureus. In words: Antibacterial activity against Staphylococcus aureus ATCC 25923 after 24 hrs by disk diffusion method. Type of assay: functional.
For assay [20], the system named is Pseudomonas aeruginosa. In words: Antibacterial activity against Pseudomonas aeruginosa ATCC 27853 after 24 hrs by disk diffusion method. Type of assay: functional.
Assay [21] deals with Escherichia coli. In words: Antibacterial activity against Escherichia coli ATCC 25922 at 30 ug/mL after 24 hrs by disk diffusion method. It counts as functional. The following applies: ATCC 25922, 24 h, read-out: DIZ.
Assay [22] relates to Staphylococcus aureus. In words: Antibacterial activity against Staphylococcus aureus ATCC 25923 at 30 ug/mL after 24 hrs by disk diffusion method. Type of assay: functional. The following applies: ATCC 25923, 24 h, read-out: DIZ.
Assay [23] has as its system Streptococcus mutans. Kind of assay: Antibacterial activity against Streptococcus mutans UA159 MTCC 497 at 30 ug/mL after 24 hrs by disk diffusion method. Type of assay: functional. The following applies: UA159 MTCC 497, 24 h, read-out: DIZ.
The test system of assay [24] is Pseudomonas aeruginosa. Kind of assay: Antibacterial activity against Pseudomonas aeruginosa ATCC 27853 at 30 ug/mL after 24 hrs by disk diffusion method. It counts as functional. The following applies: ATCC 27853, 24 h, read-out: DIZ.
For assay [25], the system named is Streptococcus pyogenes. Kind of assay: Antibacterial activity against recultured Streptococcus pyogenes at 30 ug/mL after 24 hrs by disk diffusion method. The following applies: read-out: DIZ. It counts as functional.
Assay [26] relates to Salmonella enterica. In words: Antibacterial activity against recultured Salmonella Typhimurium at 30 ug/mL after 24 hrs by disk diffusion method. Type of assay: functional, Salmonella enterica subsp. enterica serovar Typhimurium. The following applies: read-out: DIZ.
Assay [27] relates to Pichia kudriavzevii. In words: Antifungal activity against Candida krusei ATCC 6528 at 30 ug/mL after 48 to 72 hrs by disk diffusion method. It counts as functional. The following applies: read-out: DIZ.
Assay [28] concerns Candida parapsilosis. In words: Antifungal activity against Candida parapsilosis ATCC 22019 at 30 ug/mL after 48 to 72 hrs by disk diffusion method. Type of assay: functional. The following applies: Lodderomyces parapsilosis, read-out: DIZ.
Assay [29] deals with Candida albicans. In words: Antifungal activity against Candida albicans ATCC 24433 at 30 ug/mL after 48 to 72 hrs by disk diffusion method. It counts as functional. The following applies: read-out: DIZ.
Assay [30] has as its system Cryptococcus neoformans. In words: Antifungal activity Cryptococcus neoformans at 30 ug/mL after 48 to 72 hrs by disk diffusion method. It counts as functional. As to conditions: read-out: DIZ.

In brackets after ≈: the same amount, converted by molar mass.

For the compound `CCCCC/C=C\CCC(O)CCCCCCCC(=O)O[C@H]1CC[C@@]2(C)C(=CC[C@H]3[C@@H]4CC[C@H]([C@H](C)CCCC(C)C)[C@@]4(C)CC[C@@H]32)C1` (stereo not given in full), the “diameter of the inhibition zone (DIZ)” value with Streptococcus pyogenes [1] turned out to be 16.8 mm; in the assay on Candida albicans [3], 22.5 mm; in the assay with Escherichia coli [4], 9.6 mm; in the assay on Candida parapsilosis [5], 19.8 mm; in the assay with Streptococcus mutans [6], 17.3 mm; in the assay on Cryptococcus neoformans [13], 19.1 mm. Moreover, the “diameter of the inhibition zone (DIZ)” value in the assay on Salmonella enterica [16] is on record as 14.8 mm; in the assay on Pichia kudriavzevii [18], 20.7 mm; in the assay on Staphylococcus aureus [19], 17.1 mm; with Pseudomonas aeruginosa [20] it was 8.8 mm. In addition, the MIC with Streptococcus mutans [2] worked out at 64 µg/mL (≈ 95.9 µM); against Streptococcus pyogenes [7], 128 µg/mL (≈ 192 µM); in the assay with Candida parapsilosis [8], 8 µg/mL (≈ 12 µM); against Staphylococcus aureus [9] it was 64 µg/mL (≈ 95.9 µM); against Candida albicans [10] it was 1 µg/mL (≈ 1.5 µM); in the assay with Pseudomonas aeruginosa [11], 128 µg/mL (≈ 192 µM). Further, the MIC against Salmonella enterica [12] turned out to be 128 µg/mL (≈ 192 µM); with Cryptococcus neoformans [14], 8 µg/mL (≈ 12 µM); against Pichia kudriavzevii [15] it was 64 µg/mL (≈ 95.9 µM); with Escherichia coli [17], 512 µg/mL (≈ 767 µM).

Regarding `O=C(N[C@H](CO)[C@H](O)c1ccc([N+](=O)[O-])cc1)C(Cl)Cl` [CHLORAMPHENICOL], the zone of inhibition at 30 µg/mL in the assay on Escherichia coli [21] came out at 20 mm; with Staphylococcus aureus [22], 21 mm; in the assay with Streptococcus mutans [23], 26.8 mm; in the assay with Pseudomonas aeruginosa [24] it was 17.1 mm; in the assay with Streptococcus pyogenes [25], 22.4 mm; with Salmonella enterica [26] it was 25.2 mm. Further, the MIC against Streptococcus mutans [2], in the assay on Streptococcus pyogenes [7], in the assay with Staphylococcus aureus [9], against Pseudomonas aeruginosa [11], in the assay on Salmonella enterica [12] and against Escherichia coli [17] was 32 µg/mL (≈ 99 µM) throughout.

As for `CCCCCCCC/C=C\CCCCCCCC(=O)O[C@H]1CC[C@@]2(C)C(=CC[C@H]3[C@@H]4CC[C@H]([C@H](C)CCCC(C)C)[C@@]4(C)CC[C@@H]32)C1` [CHOLESTERYL OLEATE], the “diameter of the inhibition zone (DIZ)” value with Streptococcus pyogenes [1] turned out to be 17.2 mm; in the assay with Candida albicans [3] it was 18.7 mm; in the assay on Escherichia coli [4] it was 16.1 mm; in the assay with Candida parapsilosis [5] it was 15.7 mm; in the assay on Streptococcus mutans [6], 18.9 mm; with Cryptococcus neoformans [13], 15.1 mm. Moreover, the “diameter of the inhibition zone (DIZ)” value was determined as 15.1 mm with Salmonella enterica [16], 16.8 mm in the assay with Pichia kudriavzevii [18], 17.8 mm with Staphylococcus aureus [19] and 14.3 mm with Pseudomonas aeruginosa [20]. Further, the MIC with Streptococcus mutans [2] came out at 64 µg/mL (≈ 98.3 µM); against Streptococcus pyogenes [7], 64 µg/mL (≈ 98.3 µM); in the assay on Candida parapsilosis [8] it was 16 µg/mL (≈ 24.6 µM); in the assay on Staphylococcus aureus [9], 64 µg/mL (≈ 98.3 µM); against Candida albicans [10], 2 µg/mL (≈ 3.07 µM); with Pseudomonas aeruginosa [11], 128 µg/mL (≈ 197 µM). In addition, the MIC came out at 128 µg/mL (≈ 197 µM) against Salmonella enterica [12], 32 µg/mL (≈ 49.1 µM) in the assay on Cryptococcus neoformans [14], 256 µg/mL (≈ 393 µM) in the assay with Pichia kudriavzevii [15] and 128 µg/mL (≈ 197 µM) in the assay on Escherichia coli [17].

`OC(Cn1cncn1)(Cn1cncn1)c1ccc(F)cc1F` [FLUCONAZOLE]: the MIC in the assay with Candida parapsilosis [8] turned out to be 8 µg/mL (≈ 26.1 µM); in the assay with Candida albicans [10] it was 1 µg/mL (≈ 3.27 µM); against Cryptococcus neoformans [14] it was 8 µg/mL (≈ 26.1 µM); in the assay with Pichia kudriavzevii [15], 64 µg/mL (≈ 209 µM). For the same compound, the zone of inhibition at 30 µg/mL in the assay with Pichia kudriavzevii [27] is 20 mm; with Candida parapsilosis [28], 18 mm; in the assay on Candida albicans [29], 20 mm; with Cryptococcus neoformans [30], 19 mm.

The term MIC denotes the smallest concentration in the dilution series that meets the test's criterion for growth inhibition. Low values mean greater potency, high ones weaker potency.
